Measurements reported in PubChem BioAssay AID2060489 (Molecular Pharmacology Branch, DTP, NCI, 2025).
One block for each compound: values may come before it.

Test system: 922993-354-T-J3-PDC complex spheroids, viability
Assay: Anticancer human tumor 922993-354-T-J3-PDC patient-derived endometrial carcinoma cell line growth inhibition [GQUAD]
Conditions: for IC50: curve of first compound; for viability, T/C: stronger effect = lower value
Method in brief: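 Tumor cells were grown as complex spheroids with HUVEC endothelial cells and mesenchymal stem cells as stroma. G-quadruplex stabilizers were combined with targeted agents over half-log dilutions from near the clinical Cmax, or from 10 microM.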

[1] = second compound 0.0316 µM, first compound 0.0316 µM
[2] = second compound 0.0316 µM, first compound 0.1 µM
[3] = second compound 0.0316 µM, first compound 0.316 µM
[4] = second compound 0.0316 µM, first compound 1 µM
[5] = second compound 0.0316 µM, first compound 3.16 µM
[6] = second compound 0.0316 µM, first compound 10 µM
[7] = second compound 0.1 µM, first compound 0.0316 µM
[8] = second compound 0.1 µM, first compound 0.1 µM
[9] = second compound 0.1 µM, first compound 0.316 µM
[10] = second compound 0.1 µM, first compound 1 µM
[11] = second compound 0.1 µM, first compound 3.16 µM
[12] = second compound 0.1 µM, first compound 10 µM
[13] = second compound 0.316 µM, first compound 0.0316 µM
[14] = second compound 0.316 µM, first compound 0.1 µM
[15] = second compound 0.316 µM, first compound 0.316 µM
[16] = second compound 0.316 µM, first compound 1 µM
[17] = second compound 0.316 µM, first compound 3.16 µM
[18] = second compound 0.316 µM, first compound 10 µM
[19] = second compound 1 µM, first compound 0.0316 µM
[20] = second compound 1 µM, first compound 0.1 µM
[21] = second compound 1 µM, first compound 0.316 µM
[22] = second compound 1 µM, first compound 1 µM
[23] = second compound 1 µM, first compound 3.16 µM
[24] = second compound 1 µM, first compound 10 µM
[25] = second compound 3.16 µM, first compound 0.0316 µM
[26] = second compound 3.16 µM, first compound 0.1 µM
[27] = second compound 3.16 µM, first compound 0.316 µM
[28] = second compound 3.16 µM, first compound 1 µM
[29] = second compound 3.16 µM, first compound 3.16 µM
[30] = second compound 3.16 µM, first compound 10 µM
[31] = second compound 10 µM, first compound 0.0316 µM
[32] = second compound 10 µM, first compound 0.1 µM
[33] = second compound 10 µM, first compound 0.316 µM
[34] = second compound 10 µM, first compound 1 µM
[35] = second compound 10 µM, first compound 3.16 µM
[36] = second compound 10 µM, first compound 10 µM
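Further: spheroids exposed to compounds for seven days.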
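Wherever viability, T/C is given: 100% = DMSO vehicle control viability.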

Compound: Nc1ccn(C2OC(CO)C(O)C2(F)F)c(=O)n1 (stereo unspecified) + CN(C)c1ccc(Nc2c3ccc(NC(=O)CCN4CCCC4)cc3nc3cc(NC(=O)CCN4CCCC4)ccc23)cc1
- IC50 (second compound 0.0316 µM): < 31.6 nM
- IC50 (second compound 0.1 µM): < 31.6 nM
- IC50 (second compound 0.316 µM): < 31.6 nM
- IC50 (second compound 1 µM): < 31.6 nM
- IC50 (second compound 3.16 µM): < 31.6 nM
- IC50 (second compound 10 µM): < 31.6 nM
- viability, T/C [1]: 13.6%
- viability, T/C [2]: 14.7%
- viability, T/C [3]: 11.9%
- viability, T/C [4]: 16.6%
- viability, T/C [5]: 10.6%
- viability, T/C [6]: 12.7%
- viability, T/C [7]: 13.4%
- viability, T/C [8]: 13.2%
- viability, T/C [9]: 12.2%
- viability, T/C [10]: 10.8%
- viability, T/C [11]: 10.4%
- viability, T/C [12]: 11.9%
- viability, T/C [13]: 13.9%
- viability, T/C [14]: 9.77%
- viability, T/C [15]: 10.7%
- viability, T/C [16]: 13.1%
- viability, T/C [17]: 9.83%
- viability, T/C [18]: 11.2%
- viability, T/C [19]: 12.5%
- viability, T/C [20]: 8.2%
- viability, T/C [21]: 12%
- viability, T/C [22]: 13%
- viability, T/C [23]: 12%
- viability, T/C [24]: 11.8%
- viability, T/C [25]: 13.8%
- viability, T/C [26]: 11.6%
- viability, T/C [27]: 16.8%
- viability, T/C [28]: 12.2%
- viability, T/C [29]: 11.3%
- viability, T/C [30]: 13.3%
- viability, T/C [31]: 15.8%
- viability, T/C [32]: 11.4%
- viability, T/C [33]: 11.6%
- viability, T/C [34]: 14.4%
- viability, T/C [35]: 11%
- viability, T/C [36]: 11.3%

- IC50 (second compound 0.0316 µM): > 10000 nM
- IC50 (second compound 0.1 µM): > 10000 nM
- IC50 (second compound 0.316 µM): < 31.6 nM
- IC50 (second compound 1 µM): < 31.6 nM
- IC50 (second compound 3.16 µM): < 31.6 nM
- IC50 (second compound 10 µM): < 31.6 nM
Compound: O=c1[nH]cc(F)c(=O)[nH]1 + Cc1cnc(CNC(=O)c2c(=O)c3ccc(N4CCCN(C)CC4)nc3n3c2sc2ccccc23)cn1
- viability, T/C [1]: 85.8%
- viability, T/C [2]: 69.8%
- viability, T/C [3]: 79.3%
- viability, T/C [4]: 96.3%
- viability, T/C [5]: 82.1%
- viability, T/C [6]: 57.4%
- viability, T/C [7]: 65.7%
- viability, T/C [8]: 49.3%
- viability, T/C [9]: 49.7%
- viability, T/C [10]: 61.5%
- viability, T/C [11]: 63.1%
- viability, T/C [12]: 60.1%
- viability, T/C [13]: 50.6%
- viability, T/C [14]: 47.1%
- viability, T/C [15]: 45.5%
- viability, T/C [16]: 42.8%
- viability, T/C [17]: 48.7%
- viability, T/C [18]: 49.3%
- viability, T/C [19]: 54.1%
- viability, T/C [20]: 38.2%
- viability, T/C [21]: 40.8%
- viability, T/C [22]: 42.6%
- viability, T/C [23]: 50%
- viability, T/C [24]: 44.9%
- viability, T/C [25]: 46%
- viability, T/C [26]: 50.6%
- viability, T/C [27]: 43.3%
- viability, T/C [28]: 53.6%
- viability, T/C [29]: 51.5%
- viability, T/C [30]: 46.4%
- viability, T/C [31]: 44.2%
- viability, T/C [32]: 44%
- viability, T/C [33]: 43.7%
- viability, T/C [34]: 37.2%
- viability, T/C [35]: 47.4%
- viability, T/C [36]: 46.1%

- IC50 (second compound 0.0316 µM): 8750 nM
- IC50 (second compound 0.1 µM): 9750 nM
- IC50 (second compound 0.316 µM): < 31.6 nM
- IC50 (second compound 1 µM): < 31.6 nM
- IC50 (second compound 3.16 µM): < 31.6 nM
- IC50 (second compound 10 µM): < 31.6 nM
Compound: CC(=O)O[C@H]1C(=O)[C@@]2(C)[C@H]([C@H](OC(=O)c3ccccc3)[C@]3(O)C[C@H](OC(=O)[C@H](O)[C@@H](NC(=O)c4ccccc4)c4ccccc4)C(C)=C1C3(C)C)[C@]1(OC(C)=O)CO[C@@H]1C[C@@H]2O + Cc1cnc(CNC(=O)c2c(=O)c3ccc(N4CCCN(C)CC4)nc3n3c2sc2ccccc23)cn1
- viability, T/C [1]: 84.5%
- viability, T/C [2]: 79.3%
- viability, T/C [3]: 97.9%
- viability, T/C [4]: 83%
- viability, T/C [5]: 70.7%
- viability, T/C [6]: 47.3%
- viability, T/C [7]: 59.2%
- viability, T/C [8]: 86.9%
- viability, T/C [9]: 71.6%
- viability, T/C [10]: 59.3%
- viability, T/C [11]: 74.3%
- viability, T/C [12]: 49.5%
- viability, T/C [13]: 54.5%
- viability, T/C [14]: 49.6%
- viability, T/C [15]: 43.3%
- viability, T/C [16]: 52.7%
- viability, T/C [17]: 73.5%
- viability, T/C [18]: 53.3%
- viability, T/C [19]: 42.8%
- viability, T/C [20]: 58%
- viability, T/C [21]: 51.3%
- viability, T/C [22]: 46.5%
- viability, T/C [23]: 53%
- viability, T/C [24]: 46%
- viability, T/C [25]: 44.1%
- viability, T/C [26]: 50.6%
- viability, T/C [27]: 45.9%
- viability, T/C [28]: 45.1%
- viability, T/C [29]: 67.6%
- viability, T/C [30]: 60.3%
- viability, T/C [31]: 48.1%
- viability, T/C [32]: 45.4%
- viability, T/C [33]: 40.8%
- viability, T/C [34]: 40.2%
- viability, T/C [35]: 46.5%
- viability, T/C [36]: 46.4%
